Reference: patent publication US6737383B1, “Herbicidal oxadiazolidines” (priority 1999, dated 2004)

Columns and labels:
blackgrass = assay: Test B pre/postemergence blackgrass; assay type: in vivo, Alopecurus myosuroides
How it was run: (§1)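 Test chemicals in a non-phytotoxic solvent mixture with surfactant were sprayed preemergence onto planted seeds and postemergence onto plants 2 to 18 cm tall (1- to 4-leaf stage). After twelve to sixteen days in a greenhouse, injury was visually rated against untreated controls from 0 (no effect) to 10 (complete control).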

wheat = assay: Test B pre/postemergence wheat; assay type: in vivo, Triticum aestivum
How it was run: as §1

cocklebur = assay: Test B pre/postemergence cocklebur; assay type: in vivo, Xanthium strumarium
How it was run: as §1

morningglory = assay: Test B pre/postemergence morningglory; assay type: in vivo, Ipomoea hederacea
How it was run: as §1

purple nutsedge = assay: Test B pre/postemergence purple nutsedge; assay type: in vivo, Cyperus rotundus
How it was run: as §1

velvetleaf = assay: Test B pre/postemergence velvetleaf; assay type: in vivo, Abutilon theophrasti
How it was run: as §1

sugar beet = assay: Test B pre/postemergence sugar beet; assay type: in vivo, Beta vulgaris
How it was run: as §1

corn = assay: Test B pre/postemergence corn; assay type: in vivo, Zea mays
How it was run: as §1

giant foxtail = assay: Test B pre/postemergence giant foxtail; assay type: in vivo, Setaria faberii
How it was run: as §1

rape = assay: Test B pre/postemergence rape; assay type: in vivo, Brassica napus
How it was run: as §1

pigweed = assay: Test B pre/postemergence pigweed; assay type: in vivo, Amaranthus retroflexus
How it was run: as §1

wild oat = assay: Test B pre/postemergence wild oat; assay type: in vivo, Avena fatua
How it was run: as §1

bedstraw = assay: Test B pre/postemergence bedstraw; assay type: in vivo, Galium aparine; conditions: Preemergence
How it was run: as §1

surinam grass = assay: Test B pre/postemergence surinam grass; assay type: in vivo, Brachiaria decumbens
How it was run: as §1

crabgrass = assay: Test B pre/postemergence crabgrass; assay type: in vivo, Digitaria sanguinalis
How it was run: as §1

soybean = assay: Test B pre/postemergence soybean; assay type: in vivo, Glycine max
How it was run: as §1

[1] = Postemergence, Rate 62 g/ha, scale 0 to 10, 0 is no effect, 10 is complete control
[2] = Postemergence, Rate 125 g/ha, scale of 0 to 10 where 0 is no effect and 10 is complete control
[3] = Postemergence, Rate 250 g/ha, scale of 0 to 10, 0 is no effect, 10 is complete control
[4] = Preemergence, Rate 62 g/ha, scale of 0 to 10 where 0 is no effect and 10 is complete control
[5] = Preemergence, Rate 125 g/ha, scale of 0 to 10 where 0 is no effect and 10 is complete control
[6] = Preemergence, Rate 250 g/ha, scale 0 to 10 (0 no effect, 10 complete control)
[7] = Preemergence, Rate 500 g/ha, scale of 0 to 10 where 0 is no effect and 10 is complete control
[8] = Rate 500 g/ha, Postemergence, scale 0 to 10, 0 is no effect, 10 is complete control

For `C#CC(C=C(C)C)n1c(=O)on(C(=O)N(c2ccccc2)C(C)C)c1=O` (centres unmarked) [Compound 652], the “Plant response rating, Blackgrass” value (blackgrass; [1]) was 0, the “Blackgrass plant response rating” value (blackgrass; [2]) was 0 and the “Blackgrass plant response rating” value (blackgrass; [3]) was 0. For the same compound, the “Blackgrass plant response rating” value (blackgrass; [4]) was 0, the “Blackgrass plant response rating” value (blackgrass; [5]) was 0 and the “Plant response rating, Blackgrass” value (blackgrass; [6]) was 0. The “Plant response rating, Blackgrass” value (blackgrass; [7]) was 2, the “Blackgrass plant response rating” value (blackgrass; [8]) was 0 and the “Plant response rating, Wheat” value (wheat; [1]) was 0. The “Wheat plant response rating” value (wheat; [2]) was 0, the “Wheat plant response rating” value (wheat; [4]) was 0 and the “Wheat plant response rating” value (wheat; [5]) was 0. For the same compound, the “Plant response rating, Wheat” value (wheat; [6]) was 0, the “Plant response rating, Wheat” value (wheat; [7]) was 0 and the “Wheat plant response rating” value (wheat; [8]) was 2. For the same compound, the “Plant response rating, Cocklebur” value (cocklebur; [1]) was 0, the “Cocklebur plant response rating” value (cocklebur; [2]) was 0 and the “Cocklebur plant response rating” value (cocklebur; [3]) was 0. For the same compound, the “Cocklebur plant response rating” value (cocklebur; [4]) was 0, the “Cocklebur plant response rating” value (cocklebur; [5]) was 0 and the “Plant response rating, Cocklebur” value (cocklebur; [6]) was 0. The “Plant response rating, Cocklebur” value (cocklebur; [7]) was 3, the “Cocklebur plant response rating” value (cocklebur; [8]) was 0 and the “Plant response rating, Morningglory” value (morningglory; [1]) was 3. For the same compound, the “Morningglory plant response rating” value (morningglory; [2]) was 3, the “Morningglory plant response rating” value (morningglory; [3]) was 5 and the “Morningglory plant response rating” value (morningglory; [4]) was 0. For the same compound, the “Morningglory plant response rating” value (morningglory; [5]) was 0, the “Plant response rating, Morningglory” value (morningglory; [6]) was 0 and the “Plant response rating, Morningglory” value (morningglory; [7]) was 0. The “Morningglory plant response rating” value (morningglory; [8]) was 7, the “Nutsedge plant response rating” value (purple nutsedge; [2]) was 0 and the “Nutsedge plant response rating” value (purple nutsedge; [4]) was 0. The “Nutsedge plant response rating” value (purple nutsedge; [5]) was 0, the “Plant response rating, Nutsedge” value (purple nutsedge; [6]) was 0 and the “Plant response rating, Nutsedge” value (purple nutsedge; [7]) was 3. The “Nutsedge plant response rating” value (purple nutsedge; [8]) was 0, the “Plant response rating, Velvetleaf” value (velvetleaf; [1]) was 0 and the “Velvetleaf plant response rating” value (velvetleaf; [2]) was 0. For the same compound, the “Velvetleaf plant response rating” value (velvetleaf; [4]) was 0, the “Velvetleaf plant response rating” value (velvetleaf; [5]) was 0 and the “Plant response rating, Velvetleaf” value (velvetleaf; [6]) was 0. For the same compound, the “Plant response rating, Velvetleaf” value (velvetleaf; [7]) was 1, the “Velvetleaf plant response rating” value (velvetleaf; [8]) was 0 and the “Plant response rating, Sugarbeets” value (sugar beet; [1]) was 0. For the same compound, the “Sugarbeets plant response rating” value (sugar beet; [4]) was 0, the “Sugarbeets plant response rating” value (sugar beet; [5]) was 0 and the “Plant response rating, Sugarbeets” value (sugar beet; [6]) was 0. The “Plant response rating, Sugarbeets” value (sugar beet; [7]) was 0, the “Sugarbeets plant response rating” value (sugar beet; [8]) was 2 and the “Plant response rating, Corn” value (corn; [1]) was 0. The “Corn plant response rating” value (corn; [2]) was 0, the “Corn plant response rating” value (corn; [3]) was 0 and the “Corn plant response rating” value (corn; [4]) was 0. For the same compound, the “Corn plant response rating” value (corn; [5]) was 0, the “Plant response rating, Corn” value (corn; [6]) was 0 and the “Plant response rating, Corn” value (corn; [7]) was 0. The “Corn plant response rating” value (corn; [8]) was 0, the “Plant response rating, Giant foxtail” value (giant foxtail; [1]) was 0 and the “Giant foxtail plant response rating” value (giant foxtail; [2]) was 3. The “Giant foxtail plant response rating” value (giant foxtail; [3]) was 4, the “Giant foxtail plant response rating” value (giant foxtail; [4]) was 8 and the “Giant foxtail plant response rating” value (giant foxtail; [5]) was 9. For the same compound, the “Plant response rating, Giant foxtail” value (giant foxtail; [6]) was 9, the “Plant response rating, Giant foxtail” value (giant foxtail; [7]) was 9 and the “Giant foxtail plant response rating” value (giant foxtail; [8]) was 8. For the same compound, the “Plant response rating, Rape” value (rape; [1]) was 0, the “Rape plant response rating” value (rape; [4]) was 0 and the “Rape plant response rating” value (rape; [5]) was 0. For the same compound, the “Plant response rating, Rape” value (rape; [6]) was 0, the “Plant response rating, Rape” value (rape; [7]) was 0 and the “Rape plant response rating” value (rape; [8]) was 0. The “Plant response rating, Redroot pigweed” value (pigweed; [1]) was 0, the “Redroot pigweed plant response rating” value (pigweed; [2]) was 0 and the “Redroot pigweed plant response rating” value (pigweed; [4]) was 0. The “Redroot pigweed plant response rating” value (pigweed; [5]) was 0, the “Plant response rating, Redroot pigweed” value (pigweed; [6]) was 0 and the “Plant response rating, Redroot pigweed” value (pigweed; [7]) was 0. The “Redroot pigweed plant response rating” value (pigweed; [8]) was 6, the “Plant response rating, Wild oats” value (wild oat; [1]) was 0 and the “Wild oats plant response rating” value (wild oat; [2]) was 0. The “Wild oats plant response rating” value (wild oat; [4]) was 0, the “Wild oats plant response rating” value (wild oat; [5]) was 0 and the “Plant response rating, Wild oats” value (wild oat; [6]) was 0. The “Plant response rating, Wild oats” value (wild oat; [7]) was 0, the “Wild oats plant response rating” value (wild oat; [8]) was 0 and the “Bedstraw plant response rating” value (bedstraw; Rate 62 g/ha, scale of 0 to 10 where 0 is no effect and 10 is complete control) was 0. For the same compound, the “Bedstraw plant response rating” value (bedstraw; Rate 125 g/ha, scale of 0 to 10 where 0 is no effect and 10 is complete control) was 0, the “Plant response rating, Bedstraw” value (bedstraw; Rate 250 g/ha, scale 0 to 10 (0 no effect, 10 complete control)) was 0 and the “Plant response rating, Bedstraw” value (bedstraw; Rate 500 g/ha, scale of 0 to 10 where 0 is no effect and 10 is complete control) was 0. The “Plant response rating, B. signalgrass” value (surinam grass; [1]) was 0, the “Plant response rating, B. signalgrass” value (surinam grass; [2]) was 0 and the “B. signalgrass plant response rating” value (surinam grass; [3]) was 0. The “B. signalgrass plant response rating” value (surinam grass; [4]) was 0, the “B. signalgrass plant response rating” value (surinam grass; [5]) was 0 and the “Plant response rating, B. signalgrass” value (surinam grass; [6]) was 2. For the same compound, the “Plant response rating, B. signalgrass” value (surinam grass; [7]) was 2, the “B. signalgrass plant response rating” value (surinam grass; [8]) was 2 and the “Plant response rating, Crabgrass” value (crabgrass; [1]) was 0. For the same compound, the “Crabgrass plant response rating” value (crabgrass; [2]) was 0, the “Crabgrass plant response rating” value (crabgrass; [3]) was 0 and the “Crabgrass plant response rating” value (crabgrass; [4]) was 4. For the same compound, the “Crabgrass plant response rating” value (crabgrass; [5]) was 8, the “Plant response rating, Crabgrass” value (crabgrass; [6]) was 8 and the “Plant response rating, Crabgrass” value (crabgrass; [7]) was 9. For the same compound, the “Crabgrass plant response rating” value (crabgrass; [8]) was 6, the “Plant response rating, Soybean” value (soybean; [1]) was 0 and the “Soybean plant response rating” value (soybean; [2]) was 0. The “Soybean plant response rating” value (soybean; [4]) was 0, the “Soybean plant response rating” value (soybean; [5]) was 0 and the “Plant response rating, Soybean” value (soybean; [6]) was 0. For the same compound, the “Plant response rating, Soybean” value (soybean; [7]) was 0 and the “Soybean plant response rating” value (soybean; [8]) was 3.
